According to ChEMBL document CHEMBL2203203, “Structure-activity relationships of 2-arylamido-5,7-dihydro-4H-thieno[2,3-c]pyran-3-carboxamide derivatives as cannabinoid receptor agonists and their analgesic action” (Bioorg Med Chem Lett, 2012):

Assays:
Cannabinoid receptor 2 [1] = biological target: T1, Cannabinoid receptor 2 (Homo sapiens, UniProt P34972); assay: Agonist activity at human CB2 receptor after 4 hrs by luciferase reporter gene assay relative to control; type: functional
Homo sapiens = species: Homo sapiens; assay: Selectivity ratio of EC50 for human CB1 receptor to EC50 for human CB2 receptor
Cannabinoid receptor 1 [2] = biological target: T2, Cannabinoid receptor 1 (Homo sapiens, UniProt P21554); assay: Agonist activity at human CB1 receptor after 4 hrs by luciferase reporter gene assay; type: functional
T2 sequence (P21554 whole entry): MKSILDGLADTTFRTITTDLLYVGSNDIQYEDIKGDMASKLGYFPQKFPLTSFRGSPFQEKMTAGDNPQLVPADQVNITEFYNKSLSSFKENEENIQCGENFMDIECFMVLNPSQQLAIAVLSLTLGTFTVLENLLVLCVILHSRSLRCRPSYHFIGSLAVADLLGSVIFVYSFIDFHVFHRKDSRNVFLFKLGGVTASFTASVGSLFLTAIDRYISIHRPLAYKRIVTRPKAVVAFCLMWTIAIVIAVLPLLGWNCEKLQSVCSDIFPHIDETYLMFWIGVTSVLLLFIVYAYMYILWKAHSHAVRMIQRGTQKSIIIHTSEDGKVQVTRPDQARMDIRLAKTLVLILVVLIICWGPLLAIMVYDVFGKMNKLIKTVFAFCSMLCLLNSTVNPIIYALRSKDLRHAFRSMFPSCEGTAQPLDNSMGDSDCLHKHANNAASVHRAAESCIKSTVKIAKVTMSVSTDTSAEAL

Cannabinoid receptor 2 [3] = biological target: T1, Cannabinoid receptor 2; assay: Agonist activity at human CB2 receptor after 4 hrs by luciferase reporter gene assay; type: functional
Cannabinoid receptor 1 [4] = biological target: T2, Cannabinoid receptor 1; assay: Agonist activity at human CB1 receptor after 4 hrs by luciferase reporter gene assay relative to control; type: functional

T1 sequence (P34972 whole entry): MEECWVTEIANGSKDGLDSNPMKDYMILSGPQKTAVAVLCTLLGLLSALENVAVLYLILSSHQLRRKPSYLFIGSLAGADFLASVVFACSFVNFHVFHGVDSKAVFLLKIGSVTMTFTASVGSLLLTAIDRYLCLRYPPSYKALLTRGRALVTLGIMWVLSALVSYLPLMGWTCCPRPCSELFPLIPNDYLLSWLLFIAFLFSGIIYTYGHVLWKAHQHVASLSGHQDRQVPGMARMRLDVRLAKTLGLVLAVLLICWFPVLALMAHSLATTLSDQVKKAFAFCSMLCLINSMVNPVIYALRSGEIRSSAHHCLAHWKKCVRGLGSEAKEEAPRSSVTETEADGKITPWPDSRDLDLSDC

Structure (SMILES): O=C(Nc1sc2c(c1C(=O)NCC1CC1)CCC2)c1ccccc1Cl
- Efficacy (Cannabinoid receptor 2 [1]): 76%
- Ratio EC50 (Homo sapiens): > 94
- EC50 (Cannabinoid receptor 1 [2]): > 10000 nM
- EC50 (Cannabinoid receptor 2 [3]): 106 nM

Structure (SMILES): O=C(Nc1sc2c(c1C(=O)N1CCOCC1)CCOC2)c1c(F)cccc1C(F)(F)F
- Efficacy (Cannabinoid receptor 1 [4]): 56%
- Efficacy (Cannabinoid receptor 2 [1]): 100%
- Ratio EC50 (Homo sapiens): 48
- EC50 (Cannabinoid receptor 1 [2]): 4540 nM
- EC50 (Cannabinoid receptor 2 [3]): 95 nM

Structure (SMILES): O=C(Nc1sc2c(c1C(=O)N1CCC(F)(F)CC1)CCOC2)c1ccccc1OC(F)(F)F
- Efficacy (Cannabinoid receptor 1 [4]): 79%
- Efficacy (Cannabinoid receptor 2 [1]): 96%
- Ratio EC50 (Homo sapiens): 38
- EC50 (Cannabinoid receptor 1 [2]): 125 nM
- EC50 (Cannabinoid receptor 2 [3]): 3.3 nM

Structure (SMILES): COC1CN(C(=O)c2c(NC(=O)CC(C)(C)C)sc3c2CCCC3)C1
- Efficacy (Cannabinoid receptor 1 [4]): 63%
- Efficacy (Cannabinoid receptor 2 [1]): 110%
- Ratio EC50 (Homo sapiens): 85
- EC50 (Cannabinoid receptor 1 [2]): 3970 nM
- EC50 (Cannabinoid receptor 2 [3]): 47 nM

Structure (SMILES): O=C(Nc1sc2c(c1C(=O)N1CCOCC1)CCOC2)c1ccccc1OC(F)F
- Efficacy (Cannabinoid receptor 2 [1]): 96%
- Ratio EC50 (Homo sapiens): > 20
- EC50 (Cannabinoid receptor 1 [2]): > 10000 nM
- EC50 (Cannabinoid receptor 2 [3]): 488 nM

Structure (SMILES): COCC(C)(C)NC(=O)c1c(NC(=O)c2ccccc2OC(F)(F)F)sc2c1CCOC2
- Efficacy (Cannabinoid receptor 2 [1]): 81%
- Ratio EC50 (Homo sapiens): > 100
- EC50 (Cannabinoid receptor 1 [2]): > 10000 nM
- EC50 (Cannabinoid receptor 2 [3]): 101 nM

Structure (SMILES): O=C(Nc1sc2c(c1C(=O)N1CCOCC1)CCOC2)c1ccccc1Cl
- Efficacy (Cannabinoid receptor 1 [4]): 85%
- Efficacy (Cannabinoid receptor 2 [1]): 112%
- Ratio EC50 (Homo sapiens): 14
- EC50 (Cannabinoid receptor 1 [2]): 3270 nM
- EC50 (Cannabinoid receptor 2 [3]): 227 nM

Structure (SMILES): COC1CN(C(=O)c2c(NC(=O)c3c(F)cccc3C(F)(F)F)sc3c2CCOC3)C1
- Efficacy (Cannabinoid receptor 1 [4]): 55%
- Efficacy (Cannabinoid receptor 2 [1]): 100%
- Ratio EC50 (Homo sapiens): 275
- EC50 (Cannabinoid receptor 1 [2]): 6610 nM
- EC50 (Cannabinoid receptor 2 [3]): 24 nM

Structure (SMILES): CC(C)(C)CC(=O)Nc1sc2c(c1C(=O)NCC1CC1)C(C)(C)CC2
- Efficacy (Cannabinoid receptor 1 [4]): 96%
- Efficacy (Cannabinoid receptor 2 [1]): 101%
- Ratio EC50 (Homo sapiens): 38
- EC50 (Cannabinoid receptor 1 [2]): 243 nM
- EC50 (Cannabinoid receptor 2 [3]): 6.4 nM

Structure (SMILES): COCCNC(=O)c1c(NC(=O)C2CCCC2)sc2c1CCCC2
- Efficacy (Cannabinoid receptor 1 [4]): 61%
- Efficacy (Cannabinoid receptor 2 [1]): 81%
- Ratio EC50 (Homo sapiens): 113
- EC50 (Cannabinoid receptor 1 [2]): 8030 nM
- EC50 (Cannabinoid receptor 2 [3]): 71 nM

Structure (SMILES): O=C(Nc1sc2c(c1C(=O)N1CC(F)(F)C1)CCC(F)(F)C2)c1ccccc1Cl
- Efficacy (Cannabinoid receptor 1 [4]): 95%
- Efficacy (Cannabinoid receptor 2 [1]): 98%
- Ratio EC50 (Homo sapiens): 2
- EC50 (Cannabinoid receptor 1 [2]): 81 nM
- EC50 (Cannabinoid receptor 2 [3]): 49 nM

Structure (SMILES): O=C(Nc1sc2c(c1C(=O)N1CCOCC1)CCOC2)c1cccc(Cl)c1
- Efficacy (Cannabinoid receptor 2 [1]): 98%
- EC50 (Cannabinoid receptor 1 [2]): > 10000 nM
- EC50 (Cannabinoid receptor 2 [3]): 1420 nM

Structure (SMILES): COCC(C)(C)NC(=O)c1c(NC(=O)c2c(F)cccc2C(F)(F)F)sc2c1CCOC2
- Efficacy (Cannabinoid receptor 2 [1]): 94%
- Ratio EC50 (Homo sapiens): > 135
- EC50 (Cannabinoid receptor 1 [2]): > 10000 nM
- EC50 (Cannabinoid receptor 2 [3]): 74 nM

Structure (SMILES): CC(C)(C)C(=O)c1c(NC(=O)c2ccccc2C(F)(F)F)sc2c1CCOC2
- Efficacy (Cannabinoid receptor 2 [1]): 88%
- Ratio EC50 (Homo sapiens): > 11
- EC50 (Cannabinoid receptor 1 [2]): > 10000 nM
- EC50 (Cannabinoid receptor 2 [3]): 897 nM

Structure (SMILES): O=C(Nc1sc2c(c1C(=O)O)CCOC2)c1ccccc1Cl
- EC50 (Cannabinoid receptor 1 [2]): > 10000 nM
- EC50 (Cannabinoid receptor 2 [3]): > 10000 nM

Structure (SMILES): O=C(CN1CCCC1)Nc1sc2c(c1C(=O)N1CC(F)(F)C1)CCCC2
- Efficacy (Cannabinoid receptor 2 [1]): 89%
- Ratio EC50 (Homo sapiens): > 25
- EC50 (Cannabinoid receptor 1 [2]): > 10000 nM
- EC50 (Cannabinoid receptor 2 [3]): 394 nM

Structure (SMILES): COCCNC(=O)c1c(NC(=O)CC(C)(C)C)sc2c1C(C)(C)CC2
- Efficacy (Cannabinoid receptor 1 [4]): 98%
- Efficacy (Cannabinoid receptor 2 [1]): 100%
- Ratio EC50 (Homo sapiens): 62
- EC50 (Cannabinoid receptor 1 [2]): 368 nM
- EC50 (Cannabinoid receptor 2 [3]): 5.9 nM

Structure (SMILES): CC1OCc2sc(NC(=O)CC(C)(C)C)c(C(=O)N3CCCCC3)c21 (stereo not given)
- Efficacy (Cannabinoid receptor 1 [4]): 88%
- Efficacy (Cannabinoid receptor 2 [1]): 91%
- Ratio EC50 (Homo sapiens): 42
- EC50 (Cannabinoid receptor 1 [2]): 1660 nM
- EC50 (Cannabinoid receptor 2 [3]): 40 nM

Structure (SMILES): O=C(Nc1sc2c(c1C(=O)N1CCC(F)(F)CC1)CCOC2)c1ccccc1C(F)(F)F
- Efficacy (Cannabinoid receptor 1 [4]): 90%
- Efficacy (Cannabinoid receptor 2 [1]): 99%
- Ratio EC50 (Homo sapiens): 57
- EC50 (Cannabinoid receptor 1 [2]): 80 nM
- EC50 (Cannabinoid receptor 2 [3]): 1.4 nM

Structure (SMILES): O=C(Nc1sc2c(c1C(=O)NCC1CC1)CCOC2)c1c(F)cccc1C(F)(F)F
- Efficacy (Cannabinoid receptor 1 [4]): 90%
- Efficacy (Cannabinoid receptor 2 [1]): 112%
- Ratio EC50 (Homo sapiens): 74
- EC50 (Cannabinoid receptor 1 [2]): 812 nM
- EC50 (Cannabinoid receptor 2 [3]): 11 nM

Structure (SMILES): O=C(Nc1sc2c(c1C(=O)N1CCCCC1)CCOC2)c1c(F)cccc1C(F)(F)F
- Efficacy (Cannabinoid receptor 1 [4]): 94%
- Efficacy (Cannabinoid receptor 2 [1]): 103%
- Ratio EC50 (Homo sapiens): 71
- EC50 (Cannabinoid receptor 1 [2]): 1000 nM
- EC50 (Cannabinoid receptor 2 [3]): 14 nM

Structure (SMILES): COCCNC(=O)c1c(NC(=O)C2CCCN2C(=O)C2CC2)sc2c1CCCC2 (stereo not given)
- Efficacy (Cannabinoid receptor 2 [1]): 88%
- Ratio EC50 (Homo sapiens): > 29
- EC50 (Cannabinoid receptor 1 [2]): > 10000 nM
- EC50 (Cannabinoid receptor 2 [3]): 344 nM

Structure (SMILES): COC1CN(C(=O)c2c(NC(=O)CN3CCCCC3)sc3c2CCCC3)C1
- Efficacy (Cannabinoid receptor 2 [1]): 92%
- Ratio EC50 (Homo sapiens): > 45
- EC50 (Cannabinoid receptor 1 [2]): > 10000 nM
- EC50 (Cannabinoid receptor 2 [3]): 219 nM

Structure (SMILES): O=C(Nc1sc2c(c1C(=O)N1CCOCC1)CCOC2)c1ccccc1C(F)(F)F
- Efficacy (Cannabinoid receptor 1 [4]): 84%
- Efficacy (Cannabinoid receptor 2 [1]): 102%
- Ratio EC50 (Homo sapiens): 50
- EC50 (Cannabinoid receptor 1 [2]): 1750 nM
- EC50 (Cannabinoid receptor 2 [3]): 35 nM

Structure (SMILES): COCCNC(=O)c1c(NC(=O)CC(C)(C)C)sc2c1CCCC2
- Efficacy (Cannabinoid receptor 1 [4]): 90%
- Efficacy (Cannabinoid receptor 2 [1]): 94%
- Ratio EC50 (Homo sapiens): 84
- EC50 (Cannabinoid receptor 1 [2]): 1910 nM
- EC50 (Cannabinoid receptor 2 [3]): 23 nM

Structure (SMILES): O=C(CN1CCCCC1)Nc1sc2c(c1C(=O)N1CC(F)(F)C1)CCCC2
- Efficacy (Cannabinoid receptor 2 [1]): 103%
- Ratio EC50 (Homo sapiens): > 178
- EC50 (Cannabinoid receptor 1 [2]): > 10000 nM
- EC50 (Cannabinoid receptor 2 [3]): 56 nM

Structure (SMILES): COCCNC(=O)c1c(NC(=O)C2CCC2)sc2c1CCCC2
- Efficacy (Cannabinoid receptor 2 [1]): 101%
- Ratio EC50 (Homo sapiens): > 49
- EC50 (Cannabinoid receptor 1 [2]): > 10000 nM
- EC50 (Cannabinoid receptor 2 [3]): 201 nM
